Results taken from patent US11536729B2, “Method of identifying novel protein aggregation inhibitors based on chemical kinetics” (Cambridge Enterprise Limited, priority 2016, dated 2022).

Tests used:
[1] = system: C. elegans CL2122 (control-worm); test: C. elegans motility assay, control-worm model; set-up: species or system Caenorhabditis elegans; settings: in vivo
Method: Standard conditions were used for Caenorhabditis elegans propagation at 20° C. (53). Briefly, animals were synchronized by hypochlorite bleaching, hatched overnight in M9 buffer, and subsequently cultured on nematode growth medium (NGM, USP agar) plates seeded with the E. coli strain OP50. Saturated cultures of OP50 were grown by inoculating 50 mL of LB medium with OP50 and incubating the culture for 16 h at 37° C. NGM plates were seeded with bacteria by adding 350 μl of saturated OP50 to each plate and leaving the plates at room temperature for 2-3 days. […]
All populations were cultured at 20° C. and developmentally synchronized from a 4 h egg-lay. At 64-72 h post egg-lay (time zero) individuals were shifted to 23° C. or 25° C., and body movement assessed over time as indicated. At different ages, animals were washed out of the plates with M9 and spread over an un-seeded 6 cm plate, after which their movements were recorded at 30 fps using a home-made microscopic setup, at 0.75× magnification, for 30 s or 1 min. 200 animals were counted per experiment unless stated otherwise. […]
Videos were elaborated using ImageJ (National Institutes of Health, Bethesda, Md., USA), and body bends were quantified using the wrMTrck plug-in (http://www.phage.dk/plugins/wrmtrck.html), developed by Jesper Søndergaard Pedersen.

Aβ42 = biological target: T1, Aβ42 (Homo sapiens, UniProt P05067); test: ThT Aβ42 aggregation kinetics with 1-5% pre-formed fibril seeds (surface-catalyzed secondary nucleation); type: biochemical; settings: 2 μM Aβ42, 0.5- and 5-fold excess
T1 construct: The recombinant Aβ (M1-42) peptide; made in house; host or cells: E. coli BL21 Gold (DE3)
Method: For the seeded experiments, preformed fibrils were prepared just prior to the experiment. Kinetic experiments were set up just as above for a […] Aβ42 samples in 20 mM sodium phosphate buffer, pH 8 with 200 μM EDTA, 0.02% NaN3 and 20 μM ThT. The ThT fluorescence was monitored for 3 hours to verify the formation of fibrils.
Samples were then collected from the wells into low-binding tubes and sonicated for 2 min in a sonicator bath at room temperature. Under the considered conditions (i.e. 4 μM Aβ42), the monomer concentration is negligible at equilibrium (31). The final concentration of fibrils, in monomer equivalents, was considered equal to the initial concentration of monomer. Fibrils were then added to freshly prepared monomer in order to reach either 5% or 10% fibrils final concentration.
Assays were initiated by placing the 96-well plate at 37° C. under quiescent conditions in a plate reader (Fluostar Omega, Fluostar Optima or Fluostar Galaxy, BMGLabtech, Offenburg, Germany). The ThT fluorescence was measured through the bottom of the plate with a 440 nm excitation filter and a 480 nm emission filter. The ThT fluorescence was followed for three repeats of each sample. […]
For the seeded experiments, preformed fibrils were prepared just prior to the experiment. […] The ThT fluorescence was monitored for 3 hours to verify the formation of fibrils. […]

T1 sequence (P05067 672-713 limits assumed): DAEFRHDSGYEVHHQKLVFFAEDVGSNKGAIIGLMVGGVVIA

Compound: C=C(c1ccc(C(=O)O)cc1)c1cc2c(cc1C)C(C)(C)CCC2(C)C [bexarotene]
- effect in control-worm model [1]: did not show any effects
- effect on aggregation kinetics with 5% pre-formed fibril seeds (Aβ42): concentration-dependent bexarotene-induced delay
